Test system: Influenza strain A549 A/WSN/33 (H1N1)
Assay: microbe, parasite or virus in culture
Assay type: cell-based
Settings: Influenza A virus, A549, 20 h, A549 cells, influenza A/WSN/33 (H1N1), 20 hours incubation; read-out: A549_A(H1N1) EC50

| Compound | EC50 [nM] |
| --- | --- |
| CC[C@H]1/C=C/COc2c(ccc(F)c2Cl)[C@@H](c2ccccc2)N2CN1C(=O)c1c(O)c(=O)ccn12 (single isomer, unassigned) [Compound 173BA, (9*S,18*R,*E)-4-chloro-9-ethyl-3-fluoro-12-hydroxy-18-phenyl-6,9-dihydro-18H-10,17-methanobenzo[b]pyrido[1,2-f][1]oxa[5,6,9]triazacyclotridecine-11,13-dione] | 26 |
| Cc1ccccc1[C@H]1c2ccc(F)c(F)c2OC/C=C/C2(CCC2)N2CN1n1ccc(=O)c(O)c1C2=O (single isomer, unassigned) [Compound 174B, (18′*S,*E)-3′,4′-difluoro-12′-hydroxy-18′-(o-tolyl)-6′H,18′H-spiro[cyclobutane-1,9′-[10,17]methanobenzo[b]pyrido[1,2-f][1]oxa[5,6,9]triazacyclotridecine]-11′,13′-dione] | 1.2 |
| O=C1c2c(O)c(=O)ccn2N2CN1C/C=C\COc1c(ccc(F)c1F)[C@H]2c1ccccc1CF (single isomer, unassigned) [Compound 175A, (18*R,Z)-3,4-difluoro-18-(2-(fluoromethyl)phenyl)-12-hydroxy-6,9-dihydro-18H-10,17-methanobenzo[b]pyrido[1,2-f][1]oxa[5,6,9]triazacyclotridecine-11,13-dione] | 2.3 |
| O=C1c2c(O)c(=O)ccn2N2CN1[C@@]1(/C=C/COc3cc(F)c(F)c4c3[C@H]2c2ccccc2SC4)CCOC1 (single isomer, unassigned) [Compound 176BA, (3*R, 17a′*S,*E)-24′,25′-difluoro-12′-hydroxy-2′,4,5,17a′-tetrahydro-2H,6′H-spiro[furan-3,9′-[3,4](epiprop[1]en[1]yl[3]ylidene)[10,17]methanobenzo[6,7]thiepino[4,5-c]pyrido[1,2-f][1]oxa[5,6,9]triazacyclotridecine]-11′,13′-dione] | 1.1 |
| O=C1c2c(O)c(=O)ccn2N2CN1[C@]1(/C=C/COc3cc(F)c(F)c4c3[C@H]2c2ccccc2SC4)CCOC1 (single isomer, unassigned) [Compound 176BB, (3*S, 17a′*S,*E)-24′,25′-difluoro-12′-hydroxy-2′,4,5,17a′-tetrahydro-2H,6′H-spiro[furan-3,9′-[3,4](epiprop[1]en[1]yl[3]ylidene)[10,17]methanobenzo[6,7]thiepino[4,5-c]pyrido[1,2-f][1]oxa[5,6,9]triazacyclotridecine]-11′,13′-dione] | 1.4 |
| COC[C@H]1/C=C/COc2cc(F)c(F)c3c2[C@H](c2ccccc2SC3)N2CN1C(=O)c1c(O)c(=O)ccn12 (single isomer, unassigned) [Compound 177AA, (9*R,17a*R,*E)-24,25-difluoro-12-hydroxy-9-(methoxymethyl)-2,6,9,17a-tetrahydro-3,4-(epiprop[1]en[1]yl[3]ylidene)-10,17-methanobenzo[6,7]thiepino[4,5-c]pyrido[1,2-f][1]oxa[5,6,9]triazacyclotridecine-11,13-dione] | 15 |
| COC[C@@H]1/C=C/COc2cc(F)c(F)c3c2[C@H](c2ccccc2SC3)N2CN1C(=O)c1c(O)c(=O)ccn12 (single isomer, unassigned) [Compound 177AB, (9*S,17a*R,*E)-24,25-difluoro-12-hydroxy-9-(methoxymethyl)-2,6,9,17a-tetrahydro-3,4-(epiprop[1]en[1]yl[3]ylidene)-10,17-methanobenzo[6,7]thiepino[4,5-c]pyrido[1,2-f][1]oxa[5,6,9]triazacyclotridecine-11,13-dione] | 0.67 |
| O=C1c2c(O)c(=O)ccn2N2CN1C1(/C=C/COc3cc(F)cc4c3[C@@H]2c2ccccc2SC4)CCC1 (single isomer, unassigned) [Compound 180A, (17a′*R,*E)-24′-fluoro-12′-hydroxy-2′,17a′-dihydro-6′H-spiro[cyclobutane-1,9′-[3,4](epiprop[1]en[1]yl[3]ylidene)[10,17]methanobenzo[6,7]thiepino[4,5-c]pyrido[1,2-f][1]oxa[5,6,9]triazacyclotridecine]-11′,13′-dione] | 29 |
